Where two headings read alike, the source gives them in different places.
Tests used:
hα7-wt nAChR [1] = target: T1, hα7-wt nAChR (Homo sapiens, UniProt P36544); assay: Ca2+ flux imaging (FDSS): potentiation of the choline response; format: cell-based; conditions: for EC50: read-out: Potency (pEC50) (converted); for Emax: read-out: % Efficacy
Procedure, shortened: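 Cells expressing human α7-wt nAChR loaded with fluo-4AM (2 μM final) up to 120 min; HBSS/10 mM HEPES/5 mM CaCl2/0.1% BSA buffer. Compound (0.01–30 μM) applied up to 10 min before 100 μM choline; peak fluorescence measured on FDSS relative to choline alone (100%). EC50 from sigmoidal curves.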

hα7-wt nAChR [2] = target: T1, hα7-wt nAChR; assay: Patch-clamp current recording (whole-cell voltage clamp), potentiation of choline current and PAM type; format: cell-based; parameters: key: Type 0 compounds minimally enhance the effect size of the current elicited by 1 mM choline.; Type 1 compounds enhance the effect size of the current elicited by 1 mM choline but minimally alter the kinetics of the receptor.; Type 2 compounds enhance the effect size of the current elicited by 1 mM choline while reducing the rate and/or the extent of desensitization.; Type 3 compounds enhance the effect size of the current elicited by 1 mM choline. When tested at higher concentrations up to 10 μM they completely inhibit desensitization, in particular a 1 mM choline application of 250 milliseconds.; Type 4 compounds allow for an initial desensitization of the receptor followed by a re-opening of the receptor during agonist application; conditions: hα7-wt nAChR-expressing GH4C1 cells, 1 mM choline
Procedure, shortened: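 GH4C1 cells stably expressing human wild-type α7 nAChR, whole-cell voltage clamp at −70 mV with rapid application (<100 ms); compound co-applied with 1 mM choline. Peak current potentiation expressed relative to choline-alone response (=100%); compounds reaching ≥200% assigned PAM type 0–4 by current kinetics and desensitization.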

[3] = Ca2+ assay as described in D.1, potentiation of choline response, hα7-wt nAChR

T1 sequence (P36544 23-502): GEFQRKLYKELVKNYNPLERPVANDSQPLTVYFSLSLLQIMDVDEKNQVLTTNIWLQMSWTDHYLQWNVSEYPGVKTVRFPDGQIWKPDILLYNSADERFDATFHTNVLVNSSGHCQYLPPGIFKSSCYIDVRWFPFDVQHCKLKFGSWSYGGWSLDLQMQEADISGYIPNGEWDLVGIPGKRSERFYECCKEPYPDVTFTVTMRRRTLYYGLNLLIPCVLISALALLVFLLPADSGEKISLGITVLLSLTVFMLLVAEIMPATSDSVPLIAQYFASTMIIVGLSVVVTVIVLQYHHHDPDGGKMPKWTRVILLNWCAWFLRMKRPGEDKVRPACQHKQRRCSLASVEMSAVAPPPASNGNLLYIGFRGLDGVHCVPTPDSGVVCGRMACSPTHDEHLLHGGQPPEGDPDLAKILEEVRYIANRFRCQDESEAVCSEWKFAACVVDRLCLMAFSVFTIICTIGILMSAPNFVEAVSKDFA

Compound	EC50 (hα7-wt nAChR [1]; [3]) [nM]	melting point [°C]	Emax (hα7-wt nAChR [1]; [3]) [%]	PAM type (hα7-wt nAChR [2])	Emax (hα7-wt nAChR [1]) [%]
CNC(=O)Cc1cc(Nc2cc(Cl)cc(OC)c2)nn1-c1ccnc(C)c1 [Compound 72, 3-[(3-chloro-5-methoxyphenyl)amino]-N-methyl-1-(2-methyl-4-pyridinyl)-1H-pyrazole-5-acetamide]	1820	215		3	
COc1cc(Nc2cc(CC(=O)NC3CCC3)n(-c3ccnc(C)c3)n2)cc(C(F)(F)F)c1 [Compound 48, N-cyclobutyl-3-[[3-methoxy-5-(trifluoromethyl)phenyl]amino]-1-(2-methyl-4-pyridinyl)-1H-pyrazole-5-acetamide]	79.4	249.2		4	
CCNC(=O)Cc1cc(Nc2cccc(OC(F)(F)F)c2)nn1-c1ccnc(C)c1 [Compound 113, N-ethyl-1-(2-methyl-4-pyridinyl)-3-[[3-(trifluoromethoxy)phenyl]amino]-1H-pyrazole-5-acetamide]	1150	210.3		3	
COCc1cc(Nc2ccc(F)c(F)c2)nn1-c1ccnc(C)c1 [Compound 22, N-(3,4-difluorophenyl)-5-(methoxymethyl)-1-(2-methyl-4-pyridinyl)-1H-pyrazol-3-amine]	1910	184.2		0	963

Second part, led by results:

EC50 (hα7-wt nAChR [1]; [3]) [nM]	melting point [°C]	Emax (hα7-wt nAChR [1]; [3]) [%]	Compound	PAM type (hα7-wt nAChR [2])	Emax (hα7-wt nAChR [1]) [%]
490	132		Cc1cc(-n2nc(Nc3ccc4c(c3)OC(F)(F)O4)cc2CCC(=O)N(C)C)ccn1 [Compound 99, 3-[(2,2-difluoro-1,3-benzodioxol-5-yl)amino]-N,N-dimethyl-1-(2-methyl-4-pyridinyl)-1H-pyrazole-5-propanamide]	4	
1200	224.6		Cc1cc(-n2nc(Nc3cccc(OC(F)(F)F)c3)cc2CC(=O)NC2CC2)ccn1 [Compound 117, N-cyclopropyl-1-(2-methyl-4-pyridinyl)-3-[[3-(trifluoromethoxy)phenyl]amino]-1H-pyrazole-5-acetamide]	3	
2290	231.5	822	CNC(=O)Cc1cc(Nc2cccc(OC(F)(F)F)c2)nn1-c1ccnc(C)c1 [Compound 111, N-methyl-1-(2-methyl-4-pyridinyl)-3-[[3-(trifluoromethoxy)phenyl]amino]-1H-pyrazole-5-acetamide]	2	
417	227.7		Cc1cc(-n2nc(Nc3cccc(OC(F)(F)F)c3)cc2CC(=O)NC2CCC2)ccn1 [Compound 121, N-cyclobutyl-1-(2-methyl-4-pyridinyl)-3-[[3-(trifluoromethoxy)phenyl]amino]-1H-pyrazole-5-acetamide]	2	
